From ChEMBL document CHEMBL4396916, “Novel potent substituted 4-amino-2-thiopyrimidines as dual VEGFR-2 and BRAF kinase inhibitors” (Eur J Med Chem, 2019)

What was measured:
Angiopoietin-1 receptor = Angiopoietin-1 receptor (Homo sapiens, UniProt Q02763); assay: Inhibition of TIE2 (unknown origin)
T47D = assay: Growth inhibition of human T47D cells at 10 uM incubated for 48 hrs by sulforhodamine B assay relative to control; format: functional; conditions: read-out: GI
SNB-75 = assay: Growth inhibition of human SNB75 cells at 10 uM incubated for 48 hrs by sulforhodamine B assay relative to control; format: functional; conditions: SNB-75, 48 h, read-out: GI
Hs-578T = assay: Growth inhibition of human Hs578T cells at 10 uM incubated for 48 hrs by sulforhodamine B assay relative to control; format: functional; conditions: read-out: GI
RXF 393 = assay: Growth inhibition of human RXF393 cells at 10 uM incubated for 48 hrs by sulforhodamine B assay relative to control; format: functional; conditions: RXF 393, 48 h, read-out: GI
UACC-62 = assay: Growth inhibition of human UACC62 cells at 10 uM incubated for 48 hrs by sulforhodamine B assay relative to control; format: functional; conditions: UACC-62, 48 h, read-out: GI
NCI-H522 = assay: Growth inhibition of human NCI-H522 cells at 10 uM incubated for 48 hrs by sulforhodamine B assay relative to control; format: functional; conditions: NCI-H522, 48 h, read-out: GI
MCF7 [1] = assay: Inhibition of VEGFR2 level in human MCF7 cells at 10 uM measured after 48 hrs by ELISA relative to control; format: functional; conditions: MCF7, 48 h
A498 = assay: Growth inhibition of human A498 cells at 10 uM incubated for 48 hrs by sulforhodamine B assay relative to control; format: functional; conditions: A498, 48 h, read-out: GI
HOP-62 = assay: Growth inhibition of human HOP62 cells at 10 uM incubated for 48 hrs by sulforhodamine B assay relative to control; format: functional; conditions: HOP-62, 48 h, read-out: GI
[2] = biological target: Serine/threonine-protein kinase B-raf (Homo sapiens, UniProt P15056); assay: Inhibition of human wild type BRAF by Kinase-Glo luminescence assay
Sequence of Serine/threonine-protein kinase B-raf (P15056 whole entry): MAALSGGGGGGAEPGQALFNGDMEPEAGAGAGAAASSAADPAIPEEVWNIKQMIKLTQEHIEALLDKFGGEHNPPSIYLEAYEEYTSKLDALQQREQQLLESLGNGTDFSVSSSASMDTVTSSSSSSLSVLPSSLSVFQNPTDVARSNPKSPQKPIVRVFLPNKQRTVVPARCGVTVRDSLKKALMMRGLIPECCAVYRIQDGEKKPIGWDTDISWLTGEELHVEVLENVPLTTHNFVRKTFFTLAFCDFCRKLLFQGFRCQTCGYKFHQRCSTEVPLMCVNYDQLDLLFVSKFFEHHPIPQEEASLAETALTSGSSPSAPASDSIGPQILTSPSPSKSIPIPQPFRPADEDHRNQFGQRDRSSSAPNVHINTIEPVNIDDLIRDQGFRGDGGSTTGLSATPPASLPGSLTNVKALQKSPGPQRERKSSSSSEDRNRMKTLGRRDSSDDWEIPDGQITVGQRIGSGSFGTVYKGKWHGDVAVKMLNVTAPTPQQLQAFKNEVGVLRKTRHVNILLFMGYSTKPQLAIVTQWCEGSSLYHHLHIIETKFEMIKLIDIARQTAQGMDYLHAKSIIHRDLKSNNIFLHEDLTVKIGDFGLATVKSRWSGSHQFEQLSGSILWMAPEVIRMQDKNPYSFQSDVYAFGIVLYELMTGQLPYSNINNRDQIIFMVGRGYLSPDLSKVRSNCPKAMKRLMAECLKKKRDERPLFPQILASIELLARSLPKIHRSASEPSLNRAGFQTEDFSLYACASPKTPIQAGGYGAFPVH

[3] = biological target: Fibroblast growth factor receptor 1 (Homo sapiens, UniProt P11362); assay: Inhibition of FGFR1 (unknown origin)
Sequence of Fibroblast growth factor receptor 1 (P11362 whole entry): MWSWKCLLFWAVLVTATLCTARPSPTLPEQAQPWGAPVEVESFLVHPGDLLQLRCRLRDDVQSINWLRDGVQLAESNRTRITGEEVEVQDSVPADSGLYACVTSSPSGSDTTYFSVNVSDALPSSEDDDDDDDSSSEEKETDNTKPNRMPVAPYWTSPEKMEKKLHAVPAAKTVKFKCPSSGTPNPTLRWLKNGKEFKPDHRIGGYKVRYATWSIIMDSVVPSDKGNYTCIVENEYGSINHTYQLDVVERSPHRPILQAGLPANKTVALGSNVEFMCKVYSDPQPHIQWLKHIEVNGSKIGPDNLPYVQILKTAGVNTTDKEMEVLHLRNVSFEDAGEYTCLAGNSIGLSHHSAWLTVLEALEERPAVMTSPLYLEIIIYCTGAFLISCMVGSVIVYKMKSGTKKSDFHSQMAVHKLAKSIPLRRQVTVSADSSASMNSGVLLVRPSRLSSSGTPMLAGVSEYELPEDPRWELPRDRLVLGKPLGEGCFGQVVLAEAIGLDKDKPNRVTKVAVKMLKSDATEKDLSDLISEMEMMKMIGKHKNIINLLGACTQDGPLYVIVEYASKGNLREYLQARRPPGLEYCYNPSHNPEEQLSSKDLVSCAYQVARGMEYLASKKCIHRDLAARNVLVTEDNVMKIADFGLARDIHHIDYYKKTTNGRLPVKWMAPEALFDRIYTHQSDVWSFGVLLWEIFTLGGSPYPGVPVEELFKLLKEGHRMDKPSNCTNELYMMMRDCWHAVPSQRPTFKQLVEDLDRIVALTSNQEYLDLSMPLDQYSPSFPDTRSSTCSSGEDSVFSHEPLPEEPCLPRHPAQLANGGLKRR

OVCAR-8 = assay: Growth inhibition of human OVCAR8 cells at 10 uM incubated for 48 hrs by sulforhodamine B assay relative to control; format: functional; conditions: OVCAR-8, 48 h, read-out: GI
HOP-92 = assay: Growth inhibition of human HOP92 cells at 10 uM incubated for 48 hrs by sulforhodamine B assay relative to control; format: functional; conditions: HOP-92, 48 h, read-out: GI
MDA-MB-468 = assay: Growth inhibition of human MDA-MB-468 cells at 10 uM incubated for 48 hrs by sulforhodamine B assay relative to control; format: functional; conditions: MDA-MB-468, 48 h, read-out: GI
MCF7 [4] = assay: Cytotoxicity against human MCF7 cells expressing VEGFR2 and wild type BRAF measured after 48 hrs by sulforhodamine B assay; format: functional, cell-based; conditions: MCF7, 48 h
COLO 205 = assay: Growth inhibition of human COLO205 cells at 10 uM incubated for 48 hrs by sulforhodamine B assay relative to control; format: functional; conditions: COLO 205, 48 h, read-out: GI
HCT-15 = assay: Growth inhibition of human HCT15 cells at 10 uM incubated for 48 hrs by sulforhodamine B assay relative to control; format: functional; conditions: HCT-15, 48 h, read-out: GI
KM12 = assay: Growth inhibition of human KM12 cells at 10 uM incubated for 48 hrs by sulforhodamine B assay relative to control; format: functional; conditions: KM12, 48 h, read-out: GI
M14 = assay: Growth inhibition of human M14 cells at 10 uM incubated for 48 hrs by sulforhodamine B assay relative to control; format: functional; conditions: M14, 48 h, read-out: GI
A549 = assay: Growth inhibition of human A549/ATCC cells at 10 uM incubated for 48 hrs by sulforhodamine B assay relative to control; format: functional; conditions: A549, 48 h, read-out: GI
HT-29 = assay: Growth inhibition of human HT-29 cells at 10 uM incubated for 48 hrs by sulforhodamine B assay relative to control; format: functional; conditions: HT-29, 48 h, read-out: GI
TK-10 = assay: Growth inhibition of human TK10 cells at 10 uM incubated for 48 hrs by sulforhodamine B assay relative to control; format: functional; conditions: TK-10, 48 h, read-out: GI
SF-539 = assay: Growth inhibition of human SF539 cells at 10 uM incubated for 48 hrs by sulforhodamine B assay relative to control; format: functional; conditions: SF-539, 48 h, read-out: GI
SW-620 = assay: Growth inhibition of human SW620 cells at 10 uM incubated for 48 hrs by sulforhodamine B assay relative to control; format: functional; conditions: SW-620, 48 h, read-out: GI
SF-295 = assay: Growth inhibition of human SF295 cells at 10 uM incubated for 48 hrs by sulforhodamine B assay relative to control; format: functional; conditions: SF-295, 48 h, read-out: GI
IGROV-1 = assay: Growth inhibition of human IGROV1 cells at 10 uM incubated for 48 hrs by sulforhodamine B assay relative to control; format: functional; conditions: IGROV-1, 48 h, read-out: GI
HL-60(TB) = assay: Growth inhibition of human HL-60(TB) cells at 10 uM incubated for 48 hrs by sulforhodamine B assay relative to control; format: functional; conditions: HL-60, 48 h, read-out: GI

Sequence of Angiopoietin-1 receptor (Q02763 whole entry): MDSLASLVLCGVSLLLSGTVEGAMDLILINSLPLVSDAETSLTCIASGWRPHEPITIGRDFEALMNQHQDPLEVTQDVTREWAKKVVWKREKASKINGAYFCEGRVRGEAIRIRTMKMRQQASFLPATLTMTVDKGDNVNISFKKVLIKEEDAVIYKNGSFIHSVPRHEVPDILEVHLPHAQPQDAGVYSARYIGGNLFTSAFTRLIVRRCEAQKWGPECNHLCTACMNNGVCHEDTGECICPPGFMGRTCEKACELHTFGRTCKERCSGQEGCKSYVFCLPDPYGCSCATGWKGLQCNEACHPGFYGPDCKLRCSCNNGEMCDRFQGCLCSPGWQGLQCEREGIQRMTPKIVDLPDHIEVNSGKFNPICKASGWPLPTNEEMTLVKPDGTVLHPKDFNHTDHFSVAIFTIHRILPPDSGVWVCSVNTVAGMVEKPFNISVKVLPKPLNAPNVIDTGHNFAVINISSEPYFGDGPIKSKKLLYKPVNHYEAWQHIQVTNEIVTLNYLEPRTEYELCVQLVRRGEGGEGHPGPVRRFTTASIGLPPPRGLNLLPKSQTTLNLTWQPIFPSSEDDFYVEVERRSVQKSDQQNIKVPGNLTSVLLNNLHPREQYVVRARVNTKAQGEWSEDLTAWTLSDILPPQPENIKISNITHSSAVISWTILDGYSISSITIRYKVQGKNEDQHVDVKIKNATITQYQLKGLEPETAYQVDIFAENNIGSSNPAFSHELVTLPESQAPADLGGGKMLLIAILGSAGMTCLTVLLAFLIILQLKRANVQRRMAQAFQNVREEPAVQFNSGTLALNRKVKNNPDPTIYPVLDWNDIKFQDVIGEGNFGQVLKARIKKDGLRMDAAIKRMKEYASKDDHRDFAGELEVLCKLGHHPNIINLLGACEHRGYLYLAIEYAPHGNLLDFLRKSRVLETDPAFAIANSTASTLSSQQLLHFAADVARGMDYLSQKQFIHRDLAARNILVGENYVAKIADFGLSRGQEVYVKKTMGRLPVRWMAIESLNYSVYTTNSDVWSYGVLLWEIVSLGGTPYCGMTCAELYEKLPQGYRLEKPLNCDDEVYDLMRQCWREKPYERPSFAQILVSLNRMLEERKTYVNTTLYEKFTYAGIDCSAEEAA

| Compound | IC50 (Angiopoietin-1 receptor) | inhibition of growth at 10 µM (T47D) | inhibition of growth at 10 µM (UACC-62) | inhibition of growth at 10 µM (NCI-H522) | inhibition at 10 µM (MCF7 [1]) | inhibition of growth at 10 µM (A498) | inhibition of growth at 10 µM (HOP-62) | IC50 [2] | IC50 [3] | inhibition of growth at 10 µM (OVCAR-8) | inhibition of growth at 10 µM (MDA-MB-468) | IC50 (MCF7 [4]) | other results |
| --- | --- | --- | --- | --- | --- | --- | --- | --- | --- | --- | --- | --- | --- |
| O=C(CSc1nccc(Nc2ccc(N3CCOCC3)cc2)n1)c1ccc(F)cc1 | 480 nM | 34% | 28% | 49% | 33% | 36% | 69% | 110 nM | 130 nM | 62% | 38% | 26900 nM | inhibition of growth at 10 µM (SNB-75): 65%; inhibition of growth at 10 µM (Hs-578T): 39%; inhibition of growth at 10 µM (RXF 393): 43%; inhibition of growth at 10 µM (HOP-92): 26% |
| CCOC(=O)c1ccc(Nc2ccnc(SCC(=O)c3ccc(C#N)cc3)n2)cc1 | 1390 nM | 90% | 61% | 73% | 84% | 50% | 37% | 150 nM | 280 nM | 77% | 52% | 13000 nM | inhibition of growth at 10 µM (COLO 205): 29%; inhibition of growth at 10 µM (HCT-15): 24%; inhibition of growth at 10 µM (KM12): 45%; inhibition of growth at 10 µM (M14): 49%; inhibition of growth at 10 µM (A549): 39%; inhibition of growth at 10 µM (HT-29): 24%; inhibition of growth at 10 µM (TK-10): 10%; inhibition of growth at 10 µM (SF-539): 17%; inhibition of growth at 10 µM (SW-620): 10%; inhibition of growth at 10 µM (SF-295): 24%; inhibition of growth at 10 µM (IGROV-1): 21%; inhibition of growth at 10 µM (HL-60(TB)): 24% |
